Experimental data reported in the NIST ThermoML archive (doi:10.1016/j.jct.2012.01.025).

Legend:
[1] = Molar enthalpy of transition or fusion; details: Crystal; DSC
[2] = for vapor or sublimation pressure: Closed cell (Static) method
[3] = molar enthalpy of vaporization or sublimation; details: 298.15 K; Crystal; Drop calorimetry

c1ccc2c(c1)-c1cccc3cccc-2c13 [fluoranthene]
Details | Molar enthalpy of transition or fusion [kcal/mol] | molar enthalpy [kcal/mol]
[1] | 4.63 | –
[3] | – | 23

[2]
Details | Normal melting temperature [°C] | vapor or sublimation pressure [kPa]
348.83 K, Crystal | – | 0.00042
351.82 K, Crystal | – | 0.00056
354.78 K, Liquid | – | 0.00117
354.79 K, Crystal | – | 0.00076
356.76 K, Liquid | – | 0.00137
357.77 K, Crystal | – | 0.00101
360.71 K, Liquid | – | 0.00185
360.73 K, Crystal | – | 0.0013
363.72 K, Crystal | – | 0.00171
366.68 K, Crystal | – | 0.00225
366.68 K, Liquid | – | 0.0029
368.53 K, Liquid | – | 0.0033
369.65 K, Crystal | – | 0.00292
370.63 K, Liquid | – | 0.00384
372.57 K, Liquid | – | 0.00438
372.62 K, Crystal | – | 0.00379
374.61 K, Liquid | – | 0.00509
375.59 K, Crystal | – | 0.00491
378.57 K, Liquid | – | 0.0067
382.51 K, Liquid | – | 0.00865
384.49 K, Liquid | – | 0.00979
386.46 K, Liquid | – | 0.01118
388.46 K, Liquid | – | 0.01265
390.43 K, Liquid | – | 0.01425
392.43 K, Liquid | – | 0.0161
394.39 K, Liquid | – | 0.0181
396.38 K, Liquid | – | 0.02041
398.36 K, Liquid | – | 0.02287
400.35 K, Liquid | – | 0.02578
402.34 K, Liquid | – | 0.02887
404.3 K, Liquid | – | 0.03224
Crystal, DTA | 109.69 | –
